Reference: patent publication US20230286930A1, “N -SUBSTITUTED 4-(1,3-ARYLOXAZOLO-2-YL)PHENYL COMPOUNDS FOR THE TREATMENT AND PROPHYLAXIS OF HEPATITIS B VIRUS INFECTION” (Hoffmann-La Roche Inc., priority 2020, published 2023)
pIC50: −log10 of the molar value.

Key:
HBsAg = test: PHH natural infection assay, HBsAg (alphalisa); type: cell-based, HBV; conditions: Hepatitis B virus, read-out: HBsAg IC50
Procedure: (§1) Detailed procedures regarding primary human hepatocyte (PHH) HBV natural infection assay are described as below. One tube of frozen PHH (10 million cells) is thawed in 37° C. water bath and then transferred to 20 mL of PHH thawing medium (Sigma, InVitroGRO HT Medium, Cat. S03319) with gently mixing. The cells were then centrifuged at […] for 5 min, the supernatant was discarded and the tube was refilled with 25 mL of PHH plating medium (Sigma, InVitroGRO CP Medium, Cat. S03317). The tube was shaken very gently to re-suspend all cells, and then 50 μL of cells were transferred to each well 384-well collagen I coated plate with appropriate liquid handling equipment, e.g. Integra VIAFLO384 or Agilent Bravo. The cells were then cultured for 24 hours in a cell incubator. For HBV infection, after PHH attachment on the culture plate, the plating medium was removed and replenished with PHH culture medium containing HBV virus. The PHH culture medium was prepared with Dulbecco's Modified Eagle Medium (DMEM)/F12 (1:1 in volume ratio) containing 10% fetal bovine serum (Gibco, Cat. 10099141), 5 ng/mL human epidermal growth factor (Gibco, Cat.PHG0311L), 20 ng/mL dexamethasone (Sigma, Cat.D4902-100 mg), 250 ng/mL human recombinant insulin (Gibco, Cat.41400045) and 100 U/mL penicillin. HBV virus at 200 genome equivalent (GE) per cell with 4% PEG8000 (Sigma, Cat.P1458) containing culture medium were added to the PHH culture medium for infection. The cells were then cultured for 24 hours in cell incubator. Then the cell culture supernatant was removed. The HBV-infected PHH were cultured with sandwich culture method with PHH culture medium containing 1% DMSO and 0.25 mg/mL matrix gel for 72 hours. The supernatant was then refreshed with PHH culture medium containing different concentrations of testing compounds for two times with 72-hour interval. At the end of treatment, the supernatant was collected for viral markers measurements, including HBsAg, HBeAg, HBV DNA and cytotoxicity. HBsAg and HBeAg were detected using alphalisa method using their specific antibodies. For HBV DNA detection, HBV DNA Quantitative Fluorescence Diagnostic Kit (Sansure Biotech Inc.) was used following the manufacture's protocol. Cytotoxicity was determined using Cell Counting Kit-8 (CCK8, Dojindo Molecular Technologies, Inc.).
(§2) The compounds of the present invention were tested for their capacity to inhibit HBsAg and HBeAg as described herein.

HBeAg = test: PHH natural infection assay, HBeAg (alphalisa); type: cell-based, HBV; conditions: Hepatitis B virus, read-out: HBeAg IC50
Procedure: as §1, §2

[1] = PHH natural infection assay, cytotoxicity (Cell Counting Kit-8); type: cell-based; conditions: human
Procedure: as §1

SMILES	pIC50 (HBsAg)	pIC50 (HBeAg)	CC50 at 144 h [1]
O=C(Nc1ccc(-c2nc3c(F)cccc3o2)cc1)C1CCOC1 (stereo not drawn) [Example 54, N-[4-(4-fluoro-1,3-benzoxazol-2-yl)phenyl]tetrahydrofuran-3-carboxamide]	5.57	5.55	> 100000 nM
Cc1ccc2nc(-c3ccc(NC(=O)C4CCOC4)cc3)oc2n1 (stereo not drawn) [Example 71, N-[4-(5-methyloxazolo[5,4-b]pyridin-2-yl)phenyl]tetrahydrofuran-3-carboxamide]	5.03	4.76	> 100000 nM
CC(C)(O)C(=O)Nc1ccc(-c2nc3c(F)cccc3o2)cc1 [Example 49, N-[4-(4-fluoro-1,3-benzoxazol-2-yl)phenyl]-2-hydroxy-2-methyl-propanamide]	6.21	6.28	> 100000 nM
CCCC(=O)Nc1ccc(-c2nc3ccc(Cl)cc3o2)cc1 [Example 9, N-[4-(6-chloro-1,3-benzoxazol-2-yl)phenyl]butanamide]	5.92	5.84	> 100000 nM
O=C(Nc1ccc(-c2nc3c(F)cccc3o2)cc1)C12CC(C1)C2 [Example 47, N-[4-(4-fluoro-1,3-benzoxazol-2-yl)phenyl]bicyclo[1.1.1]pentane-1-carboxamide]	5.99	5.92	> 100000 nM
CC1(C(=O)Nc2ccc(-c3nc4c(F)cccc4o3)cc2)COC1 [Example 51, N-[4-(4-fluoro-1,3-benzoxazol-2-yl)phenyl]-3-methyl-oxetane-3-carboxamide]	5.94	5.91	> 100000 nM
O=C(Nc1ccc(-c2nc3cc(F)cc(F)c3o2)cc1)C1CCOC1 (stereo not drawn) [Example 70, N-[4-(5,7-difluoro-1,3-benzoxazol-2-yl)phenyl]tetrahydrofuran-3-carboxamide]	5.76	5.61	> 100000 nM
O=C(Nc1ccc(-c2nc3cccnc3o2)cc1)[C@H]1CCS(=O)(=O)C1 (single isomer, unassigned) [Example 86-a]	5.35	5.14	> 100000 nM
Cc1cnc(C(=O)Nc2ccc(-c3nc4ccc(F)c(F)c4o3)cc2)o1 [Example 78, N-[4-(6,7-difluoro-1,3-benzoxazol-2-yl)phenyl]-5-methyl-oxazole-2-carboxamide]	6.09	5.95	> 100000 nM
O=C(Nc1ccc(-c2nc3c(F)cccc3o2)cc1)C1CCS(=O)(=O)CC1 [Example 55, N-[4-(4-fluoro-1,3-benzoxazol-2-yl)phenyl]-1,1-dioxo-thiane-4-carboxamide]	5.53	5.55	> 100000 nM
O=C(Nc1ccc(-c2nc3c(F)cccc3o2)cc1)c1nccs1 [Example 44, N-[4-(4-fluoro-1,3-benzoxazol-2-yl)phenyl]thiazole-2-carboxamide]	5.88	5.89	> 100000 nM
O=C(Nc1ccc(-c2nc3c(F)cccc3o2)cc1)c1ccccn1 [Example 42, N-[4-(4-fluoro-1,3-benzoxazol-2-yl)phenyl]pyridine-2-carboxamide]	6.34	6.28	> 100000 nM
O=C(Nc1ccc(-c2nc3cc(Cl)ccc3o2)cc1)C1CCOC1 (stereo not drawn) [Example 75, N-[4-(5-chloro-1,3-benzoxazol-2-yl)phenyl]tetrahydrofuran-3-carboxamide]	5.96	5.87	> 100000 nM
O=C(Nc1ccc(-c2nc3cccc(F)c3o2)cc1)OC1CCOC1 (stereo not drawn) [Example 37, tetrahydrofuran-3-yl N-[4-(7-fluoro-1,3-benzoxazol-2-yl)phenyl]carbamate]	5.46	5.37	> 100000 nM
CCOC(=O)Nc1ccc(-c2nc3c(F)cccc3o2)cc1 [Example 59, ethyl N-[4-(4-fluoro-1,3-benzoxazol-2-yl)phenyl]carbamate]	5.79	5.80	> 100000 nM
CC1(C(=O)Nc2ccc(-c3nc4cccnc4o3)cc2)COC1 [Example 65, 3-methyl-N-(4-oxazolo[5,4-b]pyridin-2-ylphenyl)oxetane-3-carboxamide]	5.56	5.66	> 100000 nM
O=C(Nc1ccc(-c2nc3cccc(F)c3o2)cc1)C1CCS(=O)(=O)C1 (stereo not drawn) [Example 17, N-[4-(7-fluoro-1,3-benzoxazol-2-yl)phenyl]-1,1-dioxo-thiolane-3-carboxamide]	6.27	6.20	> 100000 nM
O=C(Nc1ccc(-c2nc3c(F)cccc3o2)cc1)C1CS(=O)(=O)C1 [Example 57, N-[4-(4-fluoro-1,3-benzoxazol-2-yl)phenyl]-1,1-dioxo-thietane-3-carboxamide]	5.09	5.04	> 100000 nM
O=C(Nc1ccc(-c2nc3cccc(F)c3o2)cc1)C1CCOC1 (stereo not drawn) [Example 15, N-[4-(7-fluoro-1,3-benzoxazol-2-yl)phenyl]tetrahydrofuran-3-carboxamide]	6.00	5.97	> 100000 nM
O=C(Nc1ccc(-c2nc3cccc(F)c3o2)cc1)C1C2COCC21 (stereo not drawn) [Example 33, N-[4-(7-fluoro-1,3-benzoxazol-2-yl)phenyl]-3-oxabicyclo[3.1.0]hexane-6-carboxamide]	5.80	5.96	> 100000 nM
CC(C)(C)C(=O)Nc1ccc(-c2nc3cccnc3o2)cc1 [Example 61, 2,2-dimethyl-N-(4-oxazolo[5,4-b]pyridin-2-ylphenyl)propanamide]	5.82	5.81	> 100000 nM
CC(=O)OC1(C(=O)Nc2ccc(-c3nc4cccc(F)c4o3)cc2)CC1 [Example 36, [1-[[4-(7-fluoro-1,3-benzoxazol-2-yl)phenyl]carbamoyl]cyclopropyl] acetate]	5.56	5.58	> 100000 nM
CC(C)(C)C(=O)Nc1ccc(-c2nc3c(F)cccc3o2)cc1 [Example 53, N-[4-(4-fluoro-1,3-benzoxazol-2-yl)phenyl]-2,2-dimethyl-propanamide]	5.84	5.93	> 100000 nM
O=C(Nc1ccc(-c2nc3cccc(F)c3o2)cc1)C12CC(C1)C2 [Example 14, N-[4-(7-fluoro-1,3-benzoxazol-2-yl)phenyl]bicyclo[1.1.1]pentane-1-carboxamide]	6.48	6.40	> 100000 nM
O=C(Nc1ccc(-c2nc3cc(Cl)ccc3o2)cc1)[C@@H]1CCOC1 (single isomer, unassigned) [Example 87-a]	5.39	5.39	> 100000 nM
O=C(Nc1ccc(-c2nc3cccnc3o2)cc1)C1CCOC1 (stereo not drawn) [Example 67, N-(4-oxazolo[5,4-b]pyridin-2-ylphenyl)tetrahydrofuran-3-carboxamide]	5.51	5.48	> 100000 nM
COC(=O)C12CC(C(=O)Nc3ccc(-c4nc5cccc(F)c5o4)cc3)(C1)C2 [Example 38, methyl 3-[[4-(7-fluoro-1,3-benzoxazol-2-yl)phenyl]carbamoyl]bicyclo[1.1.1]pentane-1-carboxylate]	5.43	5.40	> 100000 nM
